Here are results for 30 compounds from patent publication US20060128715A1, “Oxime derivative hydroxyethylamine aspartyl-protease inhibitors” (priority 2004, published 2006).

Several values for one entry are separate records, joined by “and”; a condition that tells them apart may be missing. Identical values can stand only once.

The test system of the first test is cathepsin D (catD) versus beta-secretase (BACE). As to the kind of experiment: Selectivity for BACE versus catD (ratio of IC50 values). The format is biochemical. The settings on record: each value is an average of four experimental runs; multiple values = more than one experiment. On the procedure: (§1) Selectivity was calculated as a ratio of inhibition (IC50) values in which the inhibition of beta-secretase was compared to the inhibition of other aspartyl proteases.
In the following examples, each value is an average of four experimental runs and multiple values for one compound indicate that more than one experiment was conducted.
Consider `CC(C)(C)c1cccc(C2(NCC(O)C(Cc3cc(F)cc(F)c3)NS(C)(=O)=O)CCc3n[nH]cc3C2)c1` (single isomer, unassigned) [Example 50-15], for which the “Selectivity IC50(catD)/IC50(BACE)” value is listed as 25.4.

Take `CC(C)(C)c1cccc(C2(NCC(O)C(Cc3cc(F)cc(F)c3)NS(C)(=O)=O)CCc3n[nH]cc3C2)c1` (single isomer, unassigned) [Example 50-16]: the “Selectivity IC50(catD)/IC50(BACE)” value was 2.7.

Regarding `Cn1cc2c(n1)CCC(NCC(O)C(Cc1cc(F)cc(F)c1)NS(C)(=O)=O)(c1cccc(C(C)(C)C)c1)C2` (single isomer, unassigned) [Example 50-18], the “Selectivity IC50(catD)/IC50(BACE)” value turned out to be 11.0.

As to `CC(C)(C)c1cccc(C2(NCC(O)C(Cc3cc(F)cc(F)c3)NC(=O)CF)CCc3n[nH]cc3C2)c1` (single isomer, unassigned) [Example 50-26], the “Selectivity IC50(catD)/IC50(BACE)” value turned out to be 17.8.

Take `CC(C)(C)c1cccc(C2(NCC(O)C(Cc3cc(F)cc(F)c3)NC(=O)CF)CCc3n[nH]cc3C2)c1` (single isomer, unassigned) [Example 50-27]: the “Selectivity IC50(catD)/IC50(BACE)” value was determined as 7.8.

As for `CON=C1CCC(NCC(O)C(Cc2cc(F)cc(F)c2)NC(C)=O)(c2cccc(C(C)(C)C)c2)CC1` (stereo not drawn) [Example 50-2], the “Selectivity IC50(catD)/IC50(BACE)” value was 15.9 and 18.3.

In the case of `CCON=C1CCC(NCC(O)C(Cc2cc(F)cc(F)c2)NC(C)=O)(c2cccc(C(C)(C)C)c2)CC1` (stereo not drawn) [Example 50-3], the “Selectivity IC50(catD)/IC50(BACE)” value is on record as 1.8.

In the case of `CC(=O)NC(Cc1cc(F)cc(F)c1)C(O)CNC1(c2cccc(C(C)(C)C)c2)CCC(=NOCCO)CC1` (stereo not drawn) [Example 50-4], the “Selectivity IC50(catD)/IC50(BACE)” value is 2.3 and 2.5.

Regarding `CC(=O)NC(Cc1cc(F)cc(F)c1)C(O)CNC1(c2cccc(C(C)(C)C)c2)CCc2nn(C(C)=O)cc2C1` (stereo not drawn) [Example 50-12], the “Selectivity IC50(catD)/IC50(BACE)” value is 11.1.

Consider `CC(=O)NC(Cc1cc(F)cc(F)c1)C(O)CNC1(c2cccc(C(C)(C)C)c2)CCC(=CC#N)CC1` (stereo not drawn) [Example 50-14], for which the “Selectivity IC50(catD)/IC50(BACE)” value came out at 1.9.

Consider `CC(=O)NC(Cc1cc(F)cc(F)c1)C(O)CNC1(c2cccc(-c3ccsc3)c2)CCc2nn(C)cc2C1` (stereo not drawn) [Example 50-17], for which the “Selectivity IC50(catD)/IC50(BACE)” value is listed as 1.1.

`CC(=O)NC(Cc1cc(F)cc(F)c1)C(O)CNC1(c2cccc(-c3ccoc3)c2)CCc2nn(C)cc2C1` (stereo not drawn) [Example 50-19]: the “Selectivity IC50(catD)/IC50(BACE)” value stood at 1.8.

As for `CC(=O)NC(Cc1ccccc1)C(O)CNC1(c2cccc(C(C)(C)C)c2)CCc2n[nH]cc2C1` (stereo not drawn) [Example 50-20], the “Selectivity IC50(catD)/IC50(BACE)” value is recorded as 19.1.

`Cn1cc2c(n1)CCC(NCC(O)C(Cc1cc(F)cc(F)c1)NC(=O)CF)(c1cccc(C(C)(C)C)c1)C2` (stereo not drawn) [Example 50-22]: the “Selectivity IC50(catD)/IC50(BACE)” value was 2.0.

As for `CC(=O)NC(Cc1cc(F)cc(F)c1)C(O)CNC1(c2cccs2)CCc2n[nH]cc2C1` (stereo not drawn) [Example 50-23], the “Selectivity IC50(catD)/IC50(BACE)” value amounted to 4.5.

Take `CC(=O)NC(Cc1cc(F)cc(F)c1)C(O)CNC1(c2cc(CC(C)(C)C)cs2)CCc2n[nH]cc2C1` (stereo not drawn) [Example 50-24]: the “Selectivity IC50(catD)/IC50(BACE)” value is 5.9 and 7.0.

Turning to `CC(C)(C)c1cccc(C2(NCC(O)C(Cc3cc(F)cc(F)c3)NC(=O)CF)CCc3n[nH]cc3C2)c1` (stereo not drawn) [Example 50-25], the “Selectivity IC50(catD)/IC50(BACE)” value is 8.5.

Take `CC(=O)NC(Cc1cc(F)cc(F)c1)C(O)CNC1(c2cccc(C(C)(C)C)c2)CCc2nn(C)cc2C1` (stereo not drawn) [Example 50-28]: the “Selectivity IC50(catD)/IC50(BACE)” value is 2.8.

Consider `CC(=O)NC(CC(C)C)C(O)CNC1(c2cccc(C(C)(C)C)c2)CCc2n[nH]cc2C1` (stereo not drawn) [Example 50-29], for which the “Selectivity IC50(catD)/IC50(BACE)” value was determined as 16.3.

For the next test, the system named is cathepsin E (catE) versus beta-secretase (BACE). Description: Selectivity for BACE versus catE (ratio of IC50 values). The format is biochemical. The settings on record: multiple values = more than one experiment. Here is the method: as §1
Selectivity is reported as the ratio of IC50(catE):IC50(BACE).
`CC(C)(C)c1cccc(C2(NCC(O)C(Cc3cc(F)cc(F)c3)NS(C)(=O)=O)CCc3n[nH]cc3C2)c1` (single isomer, unassigned) [Example 51-18]: the “Selectivity IC50(catE)/IC50(BACE)” value came out at 23.2.

As to `CC(C)(C)c1cccc(C2(NCC(O)C(Cc3cc(F)cc(F)c3)NS(C)(=O)=O)CCc3n[nH]cc3C2)c1` (single isomer, unassigned) [Example 51-19], the “Selectivity IC50(catE)/IC50(BACE)” value turned out to be 5.8.

With `CON=C1CCC(NCC(O)C(Cc2cc(F)cc(F)c2)NC(C)=O)(c2cccc(C(C)(C)C)c2)CC1` (stereo not drawn) [Example 51-2], the “Selectivity IC50(catE)/IC50(BACE)” value is 9.3 and 10.4.

Take `CCON=C1CCC(NCC(O)C(Cc2cc(F)cc(F)c2)NC(C)=O)(c2cccc(C(C)(C)C)c2)CC1` (stereo not drawn) [Example 51-3]: the “Selectivity IC50(catE)/IC50(BACE)” value was 3.3.

For `CC(=O)NC(Cc1cc(F)cc(F)c1)C(O)CNC1(c2cccc(C(C)(C)C)c2)CCc2nn(C(C)=O)cc2C1` (stereo not drawn) [Example 51-12], the “Selectivity IC50(catE)/IC50(BACE)” value came out at 8.4.

For the compound `C=C1CCC(NCC(O)C(Cc2cc(F)cc(F)c2)NC(C)=O)(c2cccc(C(C)(C)C)c2)CC1` (stereo not drawn) [Example 51-14], the “Selectivity IC50(catE)/IC50(BACE)” value is recorded as 1.9.

Turning to `CC(=O)NC(Cc1cc(F)cc(F)c1)C(O)CNC1(c2cccc(C(C)(C)C)c2)CCC(=CC#N)CC1` (stereo not drawn) [Example 51-17], the “Selectivity IC50(catE)/IC50(BACE)” value is 3.9.

With `CC(=O)NC(Cc1cc(F)cc(F)c1)C(O)CNC1(c2cccc(-c3ccsc3)c2)CCc2nn(C)cc2C1` (stereo not drawn) [Example 51-20], the “Selectivity IC50(catE)/IC50(BACE)” value is on record as 1.1.

For `Cn1cc2c(n1)CCC(NCC(O)C(Cc1cc(F)cc(F)c1)NS(C)(=O)=O)(c1cccc(C(C)(C)C)c1)C2` (stereo not drawn) [Example 51-21], the “Selectivity IC50(catE)/IC50(BACE)” value was found to be 4.8.

Turning to `CC(=O)NC(Cc1cc(F)cc(F)c1)C(O)CNC1(c2cccc(-n3cccn3)c2)CCc2nn(C)cc2C1` (stereo not drawn) [Example 51-22], the “Selectivity IC50(catE)/IC50(BACE)” value amounted to 1.8.

For `CC(=O)NC(Cc1cc(F)cc(F)c1)C(O)CNC1(c2cccc(C(C)(C)C)c2)CCc2nn(C)cc2C1` (stereo not drawn) [Example 51-23], the “Selectivity IC50(catE)/IC50(BACE)” value worked out at 1.8.
